The values below come from PubChem BioAssay (NCI).

Each structure is given as a SMILES string.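 Cultured in 96-well plates, cells were exposed to test compound for 48 hours across five concentrations. The concentration for full growth arrest is given as TGI.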

Common to all, as to assay: NCI tumour cell line growth inhibition, 48 h
In assay [1] the test system is CCRF-CEM leukemia.
Assay [2] relates to DMS 273 small cell lung.
The test system of assay [3] is HCC-2998 colon.
Assay [4] has as its system HCT-116 colon.
The subject of assay [5] is HCT-15 colon.
Assay [6] deals with HL-60(TB) leukemia.
In assay [7] the test system is HOP-18 NSCLC.
Assay [8] deals with HOP-92 NSCLC.
Assay [9] concerns HT29 colon.
Assay [10] has as its system K-562 leukemia.
For assay [11], the system named is M19-MEL melanoma.
The subject of assay [12] is NCI-H460 lung.
Assay [13] relates to OVCAR-3 ovarian.
The subject of assay [14] is OVCAR-4 ovarian.
Assay [15] has as its system OVCAR-5 ovarian.
For assay [16], the system named is OVCAR-8 ovarian.
The test system of assay [17] is RPMI-8226 leukemia.
In assay [18] the test system is RXF 393 renal.
In assay [19] the test system is SN12C renal.
For assay [20], the system named is UACC-62 melanoma.

In the case of `NCc1ccccc1-c1c2nc(c(-c3ccccc3CN)c3ccc([nH]3)c(-c3ccccc3CN)c3nc(c(-c4ccccc4CN)c4ccc1[nH]4)C=C3)C=C2`, the TGI was found to be 27.1 µM in assay [1]; 46.4 µM in assay [2]; 76.3 µM in assay [3]; 32.5 µM in assay [4]; 49.4 µM in [5]; 33.3 µM in assay [6]. Further, the TGI in [7] is 8.81 µM; in [8] it was 22.2 µM; in assay [9], > 100 µM; in assay [10] it was 35.5 µM; in assay [11], 50.7 µM; in assay [12], 66.7 µM. The TGI is 39.2 µM in assay [13]; 51.2 µM in [14]; 33.8 µM in [15]; > 100 µM in [16]; 32.3 µM in assay [17]; 43 µM in [18]. The TGI in assay [19] was 39.8 µM; in [20], 54.1 µM.

As to `CC1(C)N=C(N)N=C(N)N1c1ccc(CCc2ccccc2)cc1`, the TGI in assay [1] was > 100 µM; in [2] it was 17.5 µM; in assay [3], 42.1 µM; in [4] it was > 100 µM; in assay [5] it was > 100 µM; in assay [6], 49.1 µM. Also, the TGI in assay [7] is 97.3 µM; in assay [8], 79.7 µM; in [9], > 100 µM; in assay [10], > 100 µM; in assay [11], 38.7 µM; in [12] it was > 100 µM. Further, the TGI is > 80.6 µM in [13]; > 100 µM in [14]; > 88.2 µM in assay [15]; > 100 µM in assay [16]; > 100 µM in assay [17]; > 100 µM in assay [18]. Besides, the results for the TGI in assay [19] and in assay [20] were > 78.1 µM and > 100 µM, respectively.
